Measured values taken from PubChem BioAssay (NCI).
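Interpolation was linear, between the two tested concentrations surrounding the appropriate level; five concentrations were tested over 48 hours in 96-well plates. At the GI50, growth is halved. The concentration for full growth arrest is given as TGI.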

Experiments:
Experiment in all cases: NCI tumour cell line growth inhibition, 48 h
786-0 renal = tested on: 786-0 renal
A498 renal = tested on: A498 renal
A549 NSCLC = tested on: A549 NSCLC
ACHN renal = tested on: ACHN renal
BT-549 breast = tested on: BT-549 breast
CAKI-1 renal = tested on: CAKI-1 renal
CCRF-CEM leukemia = tested on: CCRF-CEM leukemia
COLO 205 colon = tested on: COLO 205 colon
DU-145 prostate = tested on: DU-145 prostate
EKVX NSCLC = tested on: EKVX NSCLC
HCC-2998 colon = tested on: HCC-2998 colon
HCT-116 colon = tested on: HCT-116 colon
HCT-15 colon = tested on: HCT-15 colon
HL-60(TB) leukemia = tested on: HL-60(TB) leukemia
HOP-62 NSCLC = tested on: HOP-62 NSCLC
HOP-92 NSCLC = tested on: HOP-92 NSCLC
HS 578T breast = tested on: HS 578T breast
HT29 colon = tested on: HT29 colon
IGROV1 ovarian = tested on: IGROV1 ovarian
K-562 leukemia = tested on: K-562 leukemia
KM12 colon = tested on: KM12 colon
LOX IMVI melanoma = tested on: LOX IMVI melanoma
M14 melanoma = tested on: M14 melanoma
MALME-3M melanoma = tested on: MALME-3M melanoma
MCF7 breast = tested on: MCF7 breast
MDA-MB-231 breast = tested on: MDA-MB-231 breast
MDA-MB-435 = tested on: MDA-MB-435
MOLT-4 leukemia = tested on: MOLT-4 leukemia
NCI-H226 lung = tested on: NCI-H226 lung
NCI-H23 lung = tested on: NCI-H23 lung
NCI-H460 lung = tested on: NCI-H460 lung
NCI-H522 lung = tested on: NCI-H522 lung
NCI/ADR-RES ovarian = tested on: NCI/ADR-RES ovarian
OVCAR-3 ovarian = tested on: OVCAR-3 ovarian
OVCAR-4 ovarian = tested on: OVCAR-4 ovarian
OVCAR-5 ovarian = tested on: OVCAR-5 ovarian
OVCAR-8 ovarian = tested on: OVCAR-8 ovarian
PC-3 prostate = tested on: PC-3 prostate
RPMI-8226 leukemia = tested on: RPMI-8226 leukemia
RXF 393 renal = tested on: RXF 393 renal
SF-268 CNS = tested on: SF-268 CNS
SF-295 CNS = tested on: SF-295 CNS
SF-539 CNS = tested on: SF-539 CNS
SK-MEL-2 melanoma = tested on: SK-MEL-2 melanoma
SK-MEL-28 melanoma = tested on: SK-MEL-28 melanoma
SK-MEL-5 melanoma = tested on: SK-MEL-5 melanoma
SK-OV-3 ovarian = tested on: SK-OV-3 ovarian
SN12C renal = tested on: SN12C renal
SNB-19 CNS = tested on: SNB-19 CNS
SNB-75 CNS = tested on: SNB-75 CNS
SR leukemia = tested on: SR leukemia
SW-620 colon = tested on: SW-620 colon
T-47D breast = tested on: T-47D breast
TK-10 renal = tested on: TK-10 renal
U251 CNS = tested on: U251 CNS
UACC-257 melanoma = tested on: UACC-257 melanoma
UACC-62 melanoma = tested on: UACC-62 melanoma
UO-31 renal = tested on: UO-31 renal

COc1ccc(-c2nn(-c3cccc(Cl)c3)cc2-c2cc(-c3cccs3)no2)cc1
GI50 (786-0 renal): 3.39 µM | TGI (786-0 renal): > 100 µM | GI50 (A498 renal): 1.81 µM | TGI (A498 renal): 14.6 µM | GI50 (A549 NSCLC): 3.56 µM | TGI (A549 NSCLC): 24.5 µM | GI50 (ACHN renal): 4.39 µM | TGI (ACHN renal): > 100 µM | GI50 (BT-549 breast): 4.99 µM | TGI (BT-549 breast): 21.3 µM | GI50 (CAKI-1 renal): 2.05 µM | TGI (CAKI-1 renal): 6.02 µM | GI50 (CCRF-CEM leukemia): 3.84 µM | TGI (CCRF-CEM leukemia): > 100 µM | GI50 (COLO 205 colon): 3.21 µM | TGI (COLO 205 colon): 7.24 µM | GI50 (DU-145 prostate): 7.08 µM | TGI (DU-145 prostate): 35.8 µM | GI50 (EKVX NSCLC): 2.07 µM | TGI (EKVX NSCLC): 13.5 µM | GI50 (HCC-2998 colon): 3.47 µM | TGI (HCC-2998 colon): 14.6 µM | GI50 (HCT-116 colon): 3.03 µM | TGI (HCT-116 colon): 12.7 µM | GI50 (HCT-15 colon): 4.48 µM | TGI (HCT-15 colon): 32.9 µM | GI50 (HL-60(TB) leukemia): 4.73 µM | TGI (HL-60(TB) leukemia): 38.3 µM | GI50 (HOP-62 NSCLC): 13.9 µM | TGI (HOP-62 NSCLC): 28.1 µM | GI50 (HOP-92 NSCLC): 1.61 µM | TGI (HOP-92 NSCLC): 8.13 µM | GI50 (HS 578T breast): 4.42 µM | TGI (HS 578T breast): 45.5 µM | GI50 (HT29 colon): 3.85 µM | TGI (HT29 colon): 15.1 µM | GI50 (IGROV1 ovarian): 4 µM | TGI (IGROV1 ovarian): 16.2 µM | GI50 (K-562 leukemia): 3.43 µM | TGI (K-562 leukemia): > 100 µM | GI50 (KM12 colon): 2.98 µM | TGI (KM12 colon): 11.1 µM | GI50 (LOX IMVI melanoma): 3.04 µM | TGI (LOX IMVI melanoma): 10.9 µM | GI50 (M14 melanoma): 3.3 µM | TGI (M14 melanoma): 17.1 µM | GI50 (MALME-3M melanoma): 2.6 µM | TGI (MALME-3M melanoma): 10.6 µM | GI50 (MCF7 breast): 3.53 µM | TGI (MCF7 breast): 16.9 µM | GI50 (MDA-MB-231 breast): 3.08 µM | TGI (MDA-MB-231 breast): 16.9 µM | GI50 (MDA-MB-435): 3.26 µM | TGI (MDA-MB-435): 17.3 µM | GI50 (MOLT-4 leukemia): 2.96 µM | TGI (MOLT-4 leukemia): 19.5 µM | GI50 (NCI-H226 lung): 4.11 µM | TGI (NCI-H226 lung): 30.3 µM | GI50 (NCI-H23 lung): 3.82 µM | TGI (NCI-H23 lung): 20.8 µM | GI50 (NCI-H460 lung): 3.42 µM | TGI (NCI-H460 lung): 16.6 µM | GI50 (NCI-H522 lung): 4.27 µM | TGI (NCI-H522 lung): 18.4 µM | GI50 (NCI/ADR-RES ovarian): 4.01 µM | TGI (NCI/ADR-RES ovarian): 38.1 µM | GI50 (OVCAR-3 ovarian): 5.07 µM | TGI (OVCAR-3 ovarian): 25 µM | GI50 (OVCAR-4 ovarian): 4.48 µM | TGI (OVCAR-4 ovarian): 36.4 µM | GI50 (OVCAR-5 ovarian): 7.63 µM | TGI (OVCAR-5 ovarian): 74.1 µM | GI50 (OVCAR-8 ovarian): 4.04 µM | TGI (OVCAR-8 ovarian): 36 µM | GI50 (PC-3 prostate): 3.2 µM | TGI (PC-3 prostate): 36.9 µM | GI50 (RPMI-8226 leukemia): 5.33 µM | TGI (RPMI-8226 leukemia): 61.9 µM | GI50 (RXF 393 renal): 3.49 µM | TGI (RXF 393 renal): 20.1 µM | GI50 (SF-268 CNS): 4.94 µM | TGI (SF-268 CNS): 47.1 µM | GI50 (SF-295 CNS): 2.7 µM | TGI (SF-295 CNS): 13.2 µM | GI50 (SF-539 CNS): 7.47 µM | TGI (SF-539 CNS): 36.6 µM | GI50 (SK-MEL-2 melanoma): 3.34 µM | TGI (SK-MEL-2 melanoma): 10.9 µM | GI50 (SK-MEL-28 melanoma): 4.93 µM | TGI (SK-MEL-28 melanoma): 17.8 µM | GI50 (SK-MEL-5 melanoma): 4.74 µM | TGI (SK-MEL-5 melanoma): 17.3 µM | GI50 (SK-OV-3 ovarian): 8.89 µM | TGI (SK-OV-3 ovarian): 44.1 µM | GI50 (SN12C renal): 3.48 µM | TGI (SN12C renal): 18.7 µM | GI50 (SNB-19 CNS): 6.09 µM | TGI (SNB-19 CNS): > 100 µM | GI50 (SNB-75 CNS): 3.52 µM | TGI (SNB-75 CNS): 34.7 µM | GI50 (SR leukemia): 3.03 µM | TGI (SR leukemia): 12.1 µM | GI50 (SW-620 colon): 4.35 µM | TGI (SW-620 colon): 22.6 µM | GI50 (T-47D breast): 3.86 µM | TGI (T-47D breast): 25.3 µM | GI50 (TK-10 renal): 5.21 µM | TGI (TK-10 renal): 43.8 µM | GI50 (U251 CNS): 3.61 µM | TGI (U251 CNS): 15.4 µM | GI50 (UACC-257 melanoma): 3.07 µM | TGI (UACC-257 melanoma): 15.1 µM | GI50 (UACC-62 melanoma): 3.55 µM | TGI (UACC-62 melanoma): 20 µM | GI50 (UO-31 renal): 2.56 µM | TGI (UO-31 renal): 11.8 µM
